Laboratory results as given in publication PMC6591010 (Molecular cell, 2019).

Key:
Sc condensin holocomplex = Sc condensin holocomplex (Saccharomyces cerevisiae, UniProt P38989+Q12267); details: with or without DNA
Ct Smc4hd–Brn1C = Ct Smc4hd–Brn1C (Thermochaetoides thermophila, UniProt G0S2G2, DEL467-1366/Q421L); assay: biochemical
Ct Smc4hd–Brn1C, sequence (G0S2G2 264-466 Q421L): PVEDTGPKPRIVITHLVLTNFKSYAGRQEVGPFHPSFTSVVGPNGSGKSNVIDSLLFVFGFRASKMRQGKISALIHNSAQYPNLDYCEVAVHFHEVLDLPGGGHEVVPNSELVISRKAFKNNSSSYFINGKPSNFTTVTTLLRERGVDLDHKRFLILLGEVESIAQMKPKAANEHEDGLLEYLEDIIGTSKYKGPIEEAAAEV
Ct Smc4hd–Brn1C, sequence (G0S2G2 1367-1542, stated change not applied): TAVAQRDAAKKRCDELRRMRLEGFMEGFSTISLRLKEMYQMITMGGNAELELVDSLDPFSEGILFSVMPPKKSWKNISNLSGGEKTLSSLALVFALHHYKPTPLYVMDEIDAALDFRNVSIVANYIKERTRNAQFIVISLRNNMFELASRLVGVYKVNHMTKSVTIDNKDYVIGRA
Ct Smc4hd–Brn1C, sequence (G0SBJ6 765-898 partner): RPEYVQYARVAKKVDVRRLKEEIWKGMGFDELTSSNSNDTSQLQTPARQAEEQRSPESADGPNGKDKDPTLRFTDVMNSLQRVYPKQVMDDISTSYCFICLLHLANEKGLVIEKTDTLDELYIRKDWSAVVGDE

Kd (Ct Smc4hd–Brn1C): 18.4 µM
Structure (SMILES): Nc1ncnc2c1ncn2[C@@H]1O[C@H](COP(=O)(O)OP(=O)(O)OP(=O)(O)O)[C@@H](O)[C@H]1O [ATP]
ATP hydrolysis assay (Sc condensin holocomplex): basal and DNA-stimulated ATPase activities of condensin holocomplexes
